Patent publication EP0320366A1, “Monoclonal antibodies against phospholipase A2 from the venom of snakes of the families Elapides and Hidrophides, methods for their preparation and their use in detecting poisoning caused by these snake families” (COMMISSARIAT A L'ENERGIE ATOMIQUE, priority 1987, dated 1989)

Columns and labels:
[1] = molecular target: T1, notexine (PLA₂ du venin de Notechis scutatus scutatus), notexine seule (Notechis scutatus scutatus, UniProt P00608); assay: Enzymatic activity of notexin by pH-stat titration of released fatty acids, Lineweaver-Burk analysis; format: biochemical; details: substrate: phosphatidylcholine emulsion 7,5-82,5 mM with sodium deoxycholate (ratio 3,7), CaCl₂ 20 mM, NaCl 0,12 M, pH 8, 40°C; notexin 0,5 µg/4 ml; read graphically; also printed as 0,034 M
T1 sequence (P00608 1-119): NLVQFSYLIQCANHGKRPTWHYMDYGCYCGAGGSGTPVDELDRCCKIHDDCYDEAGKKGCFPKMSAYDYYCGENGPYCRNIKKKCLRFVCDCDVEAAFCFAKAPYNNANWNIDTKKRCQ
Experimental: (§1) La mesure de l'activité enzymatique est réalisée à l'aide d'un appareil pH stat (Methrom). Les acides gras libérés sont titrés à pH constant (pH = 8), par une solution d'hydroxyde de Na 0,01 N à 40°C.
(§2) Le substrat est une émulsion de phosphatidylcholine (Halpert - Eaker, 1975), dans une solution de CaCl₂ 20 mM, NaCl 0,12 M, en présence de désoxycholate de sodium.
(§3) Le rapport concentration finale de phosphatidylcholine/concentration finale de désoxycholate de sodium est maintenu constant, égal à 3,7.
(§4) Les solutions initiales sont : phosphatidylcholine : 600 mM dans l'éthanol, désoxycholate de sodium : 270 mM dans H₂O. Le volume réactionnel final est de 4 ml.
(§5) Les volumes de soude ajoutés pour maintenir le pH constant sont enregistrés automatiquement en fonction du temps.
L'analyse cinétique de la réaction enzymatique a été faite par deux méthodes : mesure de Vi et mesure de Vmax.
Pour l'étude de Vi = f( [S] ) et 1/Vi = f(1/ [S]), à concentration de notexine constante ( [Et] = 0,5 µg/4 ml), la concentration de substrat varie de 7,5 mM à 82,5 mM. La mesure est réalisée en absence et en présence d'anticorps monoclonaux polyspécifiques MN₁, en excès molaire de 10 par rapport à la notexine. […]

[2] = molecular target: T2, notexine (PLA₂ du venin de Notechis scutatus scutatus) en présence d'anticorps MN₁ (Notechis scutatus scutatus, UniProt P00608); assay: Enzymatic activity of notexin pre-incubated with monoclonal antibody MN₁, by pH-stat titration and Lineweaver-Burk analysis; format: biochemical; details: same substrate and conditions; MN₁ in 10-fold molar excess over notexin, pre-incubated 1 h at room temperature; read graphically; also printed as 0,034 M
T2 sequence (P00608 1-119): T1 sequence (P00608 1-119)
Experimental: as §1, §2, §3, §4, §5
Les anticorps monoclonaux sont dialysés pendant 24 heures dans la solution de CaCl₂ utilisée pour effectuer les mesures, afin d'éviter une modification du pH du milieu réactionnel, lors de l'addition des anticorps. Ils sont incubés avec la notexine pendant une heure à température ambinate.
L'activité enzymatique de la notexine ainsi traitée, est alors mesurée.
L'analyse cinétique de la réaction enzymatique a été faite par deux méthodes : mesure de Vi et mesure de Vmax. […]

For phosphatidylcholine, the Km [1] was 34 mM and the Km [2] was 34 mM.
